Data from patent US20090209536A1, “AMINOQUINAZOLINE CANNABINOID RECEPTOR MODULATORS FOR TREATMENT OF DISEASE” (KALYPSYS, INC., priority 2007, published 2009).
Read-outs that look alike come from different tables or passages of the source.

Key:
[1] = target: T1, human cannabinoid receptor type 1 (Homo sapiens, UniProt P21554); experiment: Human CB1 Radioligand Binding Assay (basis of selectivity, CB2 vs. CB1); conditions: CB1: HEK 293 EBNA cells expressing human CB1; CB2: CHO CB2 membranes
T1 construct: purchased Perkin Elmer RBHCB1M; host or cells: HEK 293 EBNA cells
Protocol: 2. Human CB1 Radioligand Binding Assay
The incubation buffer was composed of 50 mM Tris-HCl pH 7.4, 2.5 mM EDTA, 5 mM MgCl2, 5.0 mg/ml fatty acid free BSA and the wash buffer was composed of 50 mM Tris-HCl pH 7.4, 2.5 mM EDTA, 5 mM MgCl2, 0.5 mg/ml fatty acid free BSA.

[2] = target: T2, human cannabinoid receptor type 2 (Homo sapiens, UniProt P34972); experiment: Human CB2 Radioligand Binding Assay; conditions: membranes from stably transfected CHO CB2 cells
T2 construct: expressed in transfected cells; membrane preparation
Outline: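 Filtration competition binding on membranes from CHO cells stably expressing human CB2, with [3H]CP-55,940 at its lot-specific Kd, in 50 mM Tris-HCl pH 7.4, EGTA, MgCl2, 5 mg/ml BSA, 1% DMSO; 90 min at 30° C. Compounds at 10 uM single point or dose-response; bound radioactivity by scintillation, 100 nM CP-55,940 as 100% efficacy.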

[3] = competition with [3H] CP-55,940, read-out: CB2 Ligand Binding Asssay EC50
[4] = CB2 Ligand Binding Asssay EC50, competition with [3H] CP-55,940

T2 sequence (P34972 whole entry): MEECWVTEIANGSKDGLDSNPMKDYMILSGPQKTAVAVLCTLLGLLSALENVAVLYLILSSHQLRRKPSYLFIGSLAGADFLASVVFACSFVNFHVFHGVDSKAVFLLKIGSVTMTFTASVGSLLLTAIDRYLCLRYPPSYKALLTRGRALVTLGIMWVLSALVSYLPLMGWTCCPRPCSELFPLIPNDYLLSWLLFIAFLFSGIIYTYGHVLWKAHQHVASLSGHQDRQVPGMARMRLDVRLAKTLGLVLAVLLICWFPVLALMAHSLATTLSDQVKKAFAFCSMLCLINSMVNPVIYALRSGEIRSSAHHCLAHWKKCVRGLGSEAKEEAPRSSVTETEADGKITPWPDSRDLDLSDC
T1 sequence (P21554 whole entry): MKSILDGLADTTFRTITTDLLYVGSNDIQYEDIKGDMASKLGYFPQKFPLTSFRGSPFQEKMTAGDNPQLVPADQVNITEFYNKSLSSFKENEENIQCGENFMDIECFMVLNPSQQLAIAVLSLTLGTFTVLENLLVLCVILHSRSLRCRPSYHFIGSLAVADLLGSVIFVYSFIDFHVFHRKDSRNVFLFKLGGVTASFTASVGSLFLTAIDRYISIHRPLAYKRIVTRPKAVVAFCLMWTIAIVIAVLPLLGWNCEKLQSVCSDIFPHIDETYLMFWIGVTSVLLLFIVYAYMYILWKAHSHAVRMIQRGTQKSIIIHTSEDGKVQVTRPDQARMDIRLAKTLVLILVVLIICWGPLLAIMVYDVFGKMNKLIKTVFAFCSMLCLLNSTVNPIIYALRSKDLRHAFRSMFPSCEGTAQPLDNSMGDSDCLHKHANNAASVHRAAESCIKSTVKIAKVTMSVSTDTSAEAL

Selectivity, CB2 vs. CB1 [1] | EC50 [2, 3] | SMILES | EC50 [2, 4]
+ (+ indicates > 10−fold) | < 1000 nM | Fc1cccc2nc(-c3ccccc3Cl)nc(N3CCCC3)c12 [Example 248, 2-(2-Chlorophenyl)-5-fluoro-4-(pyrrolidin-1-yl)quinazoline] | –
− (− indicates ≦ 10−fold) | > 1000 nM | CCOC(=O)N1CCN(c2nc(-c3ccccc3Cl)nc3cc(C(=O)NC(C)C)ccc23)CC1 [Example 320, Ethyl 4-(2-(2-chlorophenyl)-7-(isopropylcarbamoyl)quinazolin-4-yl)piperazine-1-carboxylate] | –
− (− indicates ≦ 10−fold) | > 1000 nM | Fc1ccc(-c2nc(N3CCCCC3)c3ccccc3n2)c(F)c1 [Example 23, 2-(2,4-Difluorophenyl)-4-(piperidin-1-yl)quinazoline] | –
− (− indicates ≦ 10−fold) | < 1000 nM | COc1ccc2nc(-c3ccccc3F)nc(N3CCN(C(C)=O)CC3)c2c1 [Example 274, 1-(4-(2-(2-Fluorophenyl)-6-methoxyquinazolin-4-yl)piperazin-1-yl)ethanone] | –
− (− indicates ≦ 10−fold) | > 1000 nM | Fc1ccc(-c2nc(N3CCOCC3)c3ccccc3n2)c(F)c1 [Example 25, 4-(2-(2,4-Difluorophenyl)quinazolin-4-yl)morpholine] | –
− (− indicates ≦ 10−fold) | > 1000 nM | CCCc1nc(N2CCCC2)c2ccccc2n1 [Example 40, 2-Propyl-4-(pyrrolidin-1-yl)quinazoline] | –
− (− indicates ≦ 10−fold) | > 1000 nM | COC(CN(C)c1nc(-c2ccccc2Cl)nc2ccccc12)OC [Example 229, 2-(2-Chlorophenyl)-N-(2,2-dimethoxyethyl)-N-methylquinazolin-4-amine] | –
+ (+ indicates > 10−fold) | < 1000 nM | CN1CCN(c2nc(-c3ccccc3Cl)nc3ccc(C(C)(C)C)cc23)CC1 [Example 168, 6-tert-Butyl-2-(2-chlorophenyl)-4-(4-methylpiperazin-1-yl)quinazoline] | –
+ (+ indicates > 10−fold) | < 1000 nM | CC(C)(C)c1ccc(Nc2nc(-c3ccc(C(F)(F)F)cc3)nc3ccccc23)cc1 [Example 46, (4-tert-Butylphenyl)-[2-(4-trifluoromethylphenyl)quinazolin-4-yl]amine] | –
− (− indicates ≦ 10−fold) | > 1000 nM | COC(=O)c1ccc2nc(-c3ccccc3Cl)nc(N3CCc4cc(OC)ccc43)c2c1 [Example 330, Methyl 2-(2-chlorophenyl)-4-(5-methoxyindolin-1-yl)quinazoline-6-carboxylate] | –
− (− indicates ≦ 10−fold) | > 1000 nM | CCOC(=O)N1CCN(c2nc(-c3ccccc3Cl)nc3ccc([N+](=O)[O-])cc23)CC1 [Example 343, Ethyl 4-(2-(2-chlorophenyl)-6-nitroquinazolin-4-yl)piperazine-1-carboxylate] | –
− (− indicates ≦ 10−fold) | > 1000 nM | Fc1ccc(-c2nc(N3CCOCC3)c3ccccc3n2)cc1F [Example 16, 4-(2-(3,4-difluorophenyl)quinazolin-4-yl)morpholine] | –
+ (+ indicates > 10−fold) | < 1000 nM | Cc1ccccc1-c1nc(N2CCN(C)CC2)c2ccccc2n1 [Example 157, 4-(4-Methylpiperazin-1-yl)-2-o-tolylquinazoline] | –
− (− indicates ≦ 10−fold) | > 1000 nM | O=C(NCc1nc(N2CCCC2)c2ccccc2n1)Nc1ccc(Cl)c(C(F)(F)F)c1 [Example 11, 1-(4-Chloro-3-(trifluoromethyl)phenyl)-3-((4-(pyrrolidin-1-yl)quinazolin-2-yl)methyl)urea] | –
− (− indicates ≦ 10−fold) | < 1000 nM | FC(F)(F)Oc1ccc2nc(-c3ccccc3Cl)nc(N3CCSCC3)c2c1 [Example 204, 4-(2-(2-Chlorophenyl)-6-(trifluoromethoxy)quinazolin-4-yl)thiomorpholine] | –
+ (+ indicates > 10−fold) | < 1000 nM | CN1CCN(c2nc(-c3ccc(C(F)(F)F)cc3)nc3ccccc23)CC1 [Example 42, 4-(4-Methylpiperazin-1-yl)-2-(4-(trifluoromethyl)phenyl)quinazoline] | –

Selectivity, CB2 vs. CB1 [1] | EC50 [2, 3] | SMILES | EC50 [2, 4]
− (− indicates ≦ 10−fold) | < 1000 nM | CC(=O)N1CCN(c2nc(-c3ccc(F)cc3F)nc3ccccc23)CC1 [Example 24, 1-(4-(2-(2,4-Difluorophenyl)quinazolin-4-yl)piperazin-1-yl)ethanone] | –
+ (+ indicates > 10−fold) | < 1000 nM | CC(C)(C)c1ccc2c(N3CCCC3)nc(Nc3ccc(F)cc3F)nc2c1 [Example 288, 7-tert-Butyl-N-(2,4-difluorophenyl)-4-(pyrrolidin-1-yl)quinazolin-2-amine] | –
− (− indicates ≦ 10−fold) | < 1000 nM | CC1CCCCN1c1nc(-c2ccccc2Cl)nc2ccccc12 (centres unmarked) [Example 59, 2-(2-Chlorophenyl)-4-(2-methylpiperidin-1-yl)quinazoline] | –
− (− indicates ≦ 10−fold) | > 1000 nM | CCCOC(=O)N1CCN(c2nc(-c3ccccc3Cl)nc3cccc(Cl)c23)CC1 [Example 231, Propyl 4-(5-chloro-2-(2-chlorophenyl)quinazolin-4-yl)piperazine-1-carboxylate] | –
+ (+ indicates > 10−fold) | > 1000 nM | O=C(NCc1nc(N2CCCC2)c2ccccc2n1)Nc1ccc(Cl)cc1Cl [Example 10, 1-(2,4-Dichlorophenyl)-3-((4-(pyrrolidin-1-yl)quinazolin-2-yl)methyl)urea] | –
− (− indicates ≦ 10−fold) | > 1000 nM | CN(Cc1ccccc1)c1nc(-c2ccc(F)cc2F)nc2ccccc12 [Example 26, Benzyl[2-(2,4-difluorophenyl)quinazolin-4-yl]methylamine] | –
− (− indicates ≦ 10−fold) | < 1000 nM | O=C1CCN(c2nc(-c3ccccc3Cl)nc3ccccc23)CC1 [Example 65, 1-(2-(2-Chlorophenyl)quinazolin-4-yl)piperidin-4-one] | –
− (− indicates ≦ 10−fold) | > 1000 nM | CN(C)C(=O)C1CCN(c2nc(-c3ccccc3Cl)nc3ccccc23)CC1 [Example 102, 1-(2-(2-Chlorophenyl)quinazolin-4-yl)-N,N-dimethylpiperidine-4-carboxamide] | –
+ (+ indicates > 10−fold) | < 1000 nM | COc1cccc2nc(-c3ccccc3Cl)nc(N3CCCC3)c12 [Example 245, 2-(2-Chlorophenyl)-5-methoxy-4-(pyrrolidin-1-yl)quinazoline] | –
+ (+ indicates > 10−fold) | < 1000 nM | CCOC(=O)N1CCN(c2nc(-c3ccccc3Cl)nc3cccc(C)c23)CC1 [Example 255, Ethyl 4-(2-(2-chlorophenyl)-5-methylquinazolin-4-yl)piperazine-1-carboxylate] | –
+ (+ indicates > 10−fold) | < 1000 nM | CCCN1CCN(c2nc(-c3ccccc3Cl)nc3ccccc23)CC1 [Example 108, 2-(2-Chlorophenyl)-4-(4-propylpiperazin-1-yl)quinazoline] | –
− (− indicates ≦ 10−fold) | < 1000 nM | COc1ccc2nc(C3CCCCC3)nc(N3CCN(C(C)=O)CC3)c2c1 [Example 186, 1-(4-(2-Cyclohexyl-6-methoxyquinazolin-4-yl)piperazin-1-yl)ethanone] | –
+ (+ indicates > 10−fold) | < 1000 nM | CCc1ccc2nc(-c3ccccc3Cl)nc(N3CCCC3)c2c1 [Example 176, 2-(2-Chlorophenyl)-6-ethyl-4-(pyrrolidin-1-yl)quinazoline] | –
− (− indicates ≦ 10−fold) | < 1000 nM | CN(CC1CC1)c1nc(-c2ccc(C(C)(C)C)cc2)nc2ccccc12 [Example 132, 2-(4-tert-Butylphenyl)quinazolin-4-yl cyclopropylmethyl-N-methylamine] | –
− (− indicates ≦ 10−fold) | < 1000 nM | Fc1ccccc1-c1nc(N2CCCC2)c2ccccc2n1 [Example 151, 2-(2-Fluorophenyl)-4-pyrrolidin-1-ylquinazoline] | –
− (− indicates ≦ 10−fold) | > 1000 nM | COc1cc2nc(Nc3ccc(C(C)(C)C)cc3)nc(N3CCCC3)c2cc1OC [Example 298, N-(4-tert-butylphenyl)-6,7-dimethoxy-4-(pyrrolidin-1-yl)quinazolin-2-amine] | –

SMILES | Selectivity, CB2 vs. CB1 [1] | EC50 [2, 3] | EC50 [2, 4]
COC(=O)c1ccc2c(N3CCN(C(C)=O)CC3)nc(-c3ccccc3Cl)nc2c1 [Example 322, Methyl 4-(4-acetylpiperazin-1-yl)-2-(2-chlorophenyl)quinazoline-7-carboxylate] | − (− indicates ≦ 10−fold) | – | > 1000 nM
O=S(=O)(NCc1nc(N2CCOCC2)c2ccccc2n1)c1ccc2ccccc2c1 [Example 301, N-((4-Morpholinoquinazolin-2-yl)methyl)naphthalene-2-sulfonamide] | − (− indicates ≦ 10−fold) | – | > 1000 nM
